“And” between values parts separate entries of the source, which are not always exact repeats. Equal entries are not always repeated. “Also recorded” adds a separate entry of the source. Where two headings read alike, the source gives them in different places.
Tests used:
[1] = tested on: GABAA receptor transmembrane anesthetic binding sites; settings: photolabel protection studies; cited from earlier work
[2] = molecular target: T1, α1β3γ2L GABAA receptors (Homo sapiens, UniProt P14867+P18507+P28472); assay type: cell-based
T1 sequence (P14867 28-456): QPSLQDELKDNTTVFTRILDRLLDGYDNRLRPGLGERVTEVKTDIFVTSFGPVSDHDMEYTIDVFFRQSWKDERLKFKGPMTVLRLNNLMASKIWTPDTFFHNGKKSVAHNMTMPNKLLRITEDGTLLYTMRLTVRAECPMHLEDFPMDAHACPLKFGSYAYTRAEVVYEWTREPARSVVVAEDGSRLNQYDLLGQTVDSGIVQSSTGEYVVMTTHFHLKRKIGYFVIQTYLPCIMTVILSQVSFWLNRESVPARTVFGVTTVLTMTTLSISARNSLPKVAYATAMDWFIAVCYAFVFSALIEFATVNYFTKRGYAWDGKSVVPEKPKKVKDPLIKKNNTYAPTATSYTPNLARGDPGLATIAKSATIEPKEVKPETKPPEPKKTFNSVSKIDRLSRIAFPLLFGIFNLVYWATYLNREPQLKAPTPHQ
T1 sequence (P28472 26-473): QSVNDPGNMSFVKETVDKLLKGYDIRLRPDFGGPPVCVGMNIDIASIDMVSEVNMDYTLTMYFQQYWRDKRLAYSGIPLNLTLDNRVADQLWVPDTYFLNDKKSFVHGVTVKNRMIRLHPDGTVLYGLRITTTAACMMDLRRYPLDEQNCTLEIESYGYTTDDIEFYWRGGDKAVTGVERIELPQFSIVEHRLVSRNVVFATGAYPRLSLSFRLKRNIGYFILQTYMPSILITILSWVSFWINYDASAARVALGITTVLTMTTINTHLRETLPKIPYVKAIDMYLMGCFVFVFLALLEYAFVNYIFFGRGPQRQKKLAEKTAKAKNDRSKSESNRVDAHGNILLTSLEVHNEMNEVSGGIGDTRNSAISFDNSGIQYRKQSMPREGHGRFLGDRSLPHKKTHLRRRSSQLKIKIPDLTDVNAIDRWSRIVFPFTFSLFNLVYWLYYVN
T1 sequence (P18507 40-475): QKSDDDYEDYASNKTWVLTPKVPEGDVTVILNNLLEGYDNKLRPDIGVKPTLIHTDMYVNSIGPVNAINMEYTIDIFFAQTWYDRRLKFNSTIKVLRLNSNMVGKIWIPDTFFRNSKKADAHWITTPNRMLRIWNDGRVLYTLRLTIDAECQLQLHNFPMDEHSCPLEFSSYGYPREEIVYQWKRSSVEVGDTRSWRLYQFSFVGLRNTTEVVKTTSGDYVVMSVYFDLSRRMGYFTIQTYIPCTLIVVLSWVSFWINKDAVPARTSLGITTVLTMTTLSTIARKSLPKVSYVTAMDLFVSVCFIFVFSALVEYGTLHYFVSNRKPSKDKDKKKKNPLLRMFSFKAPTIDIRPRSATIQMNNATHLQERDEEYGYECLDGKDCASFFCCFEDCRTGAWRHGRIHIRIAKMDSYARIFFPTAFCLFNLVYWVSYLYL

[3] = molecular target: T1, α1β3γ2L GABAA receptors; settings: 300 μM naphthalene-etomidate; for Percent change in peak current amplitude, GABA EC5 + Etomidate: etomidate 3 μM; for Percent change in peak current amplitude, GABA EC5 + Pentobarbital: pentobarbital 120 μM; for Percent change in peak current amplitude, GABA EC5 + Propofol: propofol 10 μM
[4] = molecular target: α1β3γ2L GABAA receptors (β+−α− transmembrane anesthetic sites) (Homo sapiens, UniProt P14867+P18507+P28472); test: Inhibition of receptor photoaffinity labeling by [3H]azi-etomidate; settings: for slope for inhibition of [3H]azi-etomidate photoincorporation: fit to equation 2
Chain of α1β3γ2L GABAA receptors (β+−α− transmembrane anesthetic sites) (P14867 28-456): as the sequence (P14867 28-456) above
Chain of α1β3γ2L GABAA receptors (β+−α− transmembrane anesthetic sites) (P28472 26-473): as the sequence (P28472 26-473) above
Chain of α1β3γ2L GABAA receptors (β+−α− transmembrane anesthetic sites) (P18507 40-475): as the sequence (P18507 40-475) above

[5] = molecular target: α1β3γ2L GABAA receptor open and closed states (Homo sapiens, UniProt P14867+P18507+P28472); test: Allosteric modeling of direct activation data; assay type: cell-based
Chain of α1β3γ2L GABAA receptor open and closed states (P14867 28-456): as the sequence (P14867 28-456) above
Chain of α1β3γ2L GABAA receptor open and closed states (P28472 26-473): as the sequence (P28472 26-473) above
Chain of α1β3γ2L GABAA receptor open and closed states (P18507 40-475): as the sequence (P18507 40-475) above

[6] = molecular target: T1, α1β3γ2L GABAA receptors; assay type: cell-based; settings: for EC5 GABA-evoked currents in the presence of drug, as % of those evoked by 1 mM GABA: 300 μM drug, mean ± SD; for maximum peak current amplitude at high drug concentrations, relative to that produced by 1 mM GABA: EC5 GABA; for maximum peak current amplitude at high drug concentrations, relative to that produced by 1 mM GABA / slope of potentiation concentration-response curve: fit to equation 1
[7] = molecular target: α1β3γ2L GABAA receptors (α+−β− and γ+−β− transmembrane anesthetic sites) (Homo sapiens, UniProt P14867+P18507+P28472); test: Inhibition of receptor photoaffinity labeling by R-[3H]mTFD-MPAB; settings: for slope for inhibition of R-[3H]mTFD-MPAB photoincorporation: fit to equation 2
Chain of α1β3γ2L GABAA receptors (α+−β− and γ+−β− transmembrane anesthetic sites) (P14867 28-456): as the sequence (P14867 28-456) above
Chain of α1β3γ2L GABAA receptors (α+−β− and γ+−β− transmembrane anesthetic sites) (P28472 26-473): as the sequence (P28472 26-473) above
Chain of α1β3γ2L GABAA receptors (α+−β− and γ+−β− transmembrane anesthetic sites) (P18507 40-475): as the sequence (P18507 40-475) above

[8] = molecular target: T1, α1β3γ2L GABAA receptors; assay type: cell-based; remark: listed apart in the source
[9] = Aqueous saturation; assay type: physicochemical; settings: aqueous buffer
[10] = absence of naphthalene-etomidate
[11] = presence of 300 μM naphthalene-etomidate
[12] = GABA Pre-exposure, mean ± SD, n = 6
[13] = Naphthalene-etomidate Pre-exposure (10 s), mean ± SD, n = 6
[14] = Simultaneous Addition, mean ± SD, n = 6
[15] = listed as Naphthalene-etomidate
[16] = EC5 GABA + 10 μM propofol, fit to equation 2

Compound: CC(C)c1cccc(C(C)C)c1O [propofol]
- binding selectivity for β+–α− sites as compared to α+–β−/γ+–β− sites [1]: essentially no selectivity at all; also recorded: virtually no binding site selectivity
- peak current amplitude (normalized to 1 mM GABA) produced with EC5 GABA ([2]; 10 μM propofol, absence of naphthalene-etomidate): 61%
- EC50 ([2]; EC50 for propofol potentiation of EC5 GABA-evoked currents, absence of naphthalene-etomidate, minimum constrained to 5%): 6 µM
- maximal peak current response at high propofol concentrations [2, 10]: 88%
- slope of propofol potentiation curve [2, 10]: 1.5
- maximal peak current response at high propofol concentrations [2, 11]: 87%
- slope of propofol potentiation curve [2, 11]: 1.0

Compound: CCOC(=O)c1cncn1C(C)c1cccc2ccccc12 (stereo not shown) [naphthalene-etomidate]
- fold greater reduction in currents potentiated by propofol compared to currents potentiated by etomidate or pentobarbital [3]: approximately 2 fold
- Percent change in peak current amplitude, GABA EC5 + Diazepam ([3]; GABA Pre-exposure, diazepam 1 μM, mean ± SD, n = 6): 33 ± 6.9%
- Percent change in peak current amplitude, GABA EC5 + Etomidate [3, 12]: −24 ± 1.8%
- Percent change in peak current amplitude, GABA EC50 [3, 12]: 21 ± 9%
- Percent change in peak current amplitude, GABA EC5 + Pentobarbital [3, 12]: −21 ± 5.4%
- Percent change in peak current amplitude, GABA EC5 + Propofol [3, 12]: −49 ± 4.69%
- Percent change in peak current amplitude, GABA EC5 + Etomidate [3, 13]: −47 ± 4.1%
- Percent change in peak current amplitude, GABA EC50 [3, 13]: −8.8 ± 8.6%
- Percent change in peak current amplitude, GABA EC5 + Pentobarbital [3, 13]: −45 ± 7.9%
- Percent change in peak current amplitude, GABA EC5 + Propofol [3, 13]: −68 ±6.0%
- Percent change in peak current amplitude, GABA EC5 + Etomidate [3, 14]: −33 ± 7.8%
- Percent change in peak current amplitude, GABA EC50 ([3]; Simultaneous Addition, mean ± SD, n = 6 oocytes): 7.3 ± 8.8%
- Percent change in peak current amplitude, GABA EC5 + Pentobarbital [3, 14]: −33 ± 7.1%
- Percent change in peak current amplitude, GABA EC5 + Propofol [3, 14]: −63 ± 7.3%
- slope for inhibition of [3H]azi-etomidate photoincorporation [4]: −2.0
- slope for inhibition of [3H]azi-etomidate photoincorporation [4, 15]: −1.2
- inhibition of specific [3H]azi-etomidate photoincorporation ([4]; highest concentrations studied): ≥ 90%
- fold lower affinity for the open state of the receptor versus etomidate ([5]; comparison of dissociation constants): 27 fold
- fold higher affinity for the open state than the closed state ([5]; from Kdopen and Kdclosed): 4.4 fold
- EC5 GABA-evoked currents in the presence of drug, as % of those evoked by 1 mM GABA [6]: 11 ± 2.7% and 11%
- maximum peak current amplitude at high drug concentrations, relative to that produced by 1 mM GABA [6]: 11%
- slope of potentiation concentration-response curve [6]: 3
- slope for inhibition of R-[3H]mTFD-MPAB photoincorporation [7]: −1.3
- slope for inhibition of R-[3H]mTFD-MPAB photoincorporation [7, 15]: −2.0
- inhibition of specific R-[3H]mTFD-MPAB photoincorporation ([7]; highest concentrations studied): ≥ 90%
- fold increase in EC50 for propofol potentiation of EC5 GABA-evoked currents ([2]; 300 μM naphthalene-etomidate): 6 fold
- minimum normalized peak current at high naphthalene-etomidate concentrations [2, 16]: 24%
- slope for inhibition of propofol-potentiated currents [2, 16]: −3.9
- directly activated currents compared with those activated by etomidate ([8]; same oocyte, no GABA): orders of magnitude smaller
- near aqueous-saturating concentration [9]: ~300 µM

Compound: CCOC(=O)c1cncn1[C@H](C)c1ccccc1 [etomidate, reference compound]
- fold potentiation of EC5 GABA-evoked current ([6]; 100 μM drug, representative traces, single oocyte): 14 fold
- EC5 GABA-evoked currents in the presence of drug, as % of those evoked by 1 mM GABA [6]: 90 ± 7%
- maximum peak current amplitude at high drug concentrations, relative to that produced by 1 mM GABA [6]: 95%
- slope of potentiation concentration-response curve [6]: 1.2
- slope of direct activation concentration-response curve ([8]; fit to equation 1): 1.2

Compound: CCCC(C)C1(CC)C(=O)NC(=O)NC1=O (stereo not shown) [pentobarbital]
- binding selectivity for β+–α− sites as compared to α+–β−/γ+–β− sites [1]: reverse selectivity

Source: article PMC5645246 (Anesthesiology, 2017)
